Test results as given in ChEMBL document CHEMBL3046389, “Synthesis and biological evaluation of novel hydroquinone dimethyl ethers as potential anticancer and antimicrobial agents” (2013).
In brackets after ≈: the same amount, converted by molar mass.

Tests used:
Type in all cases: functional
HOP-62 [1] = assay: Anticancer activity against Homo sapiens (human) HOP62 cells after 48 hr by SRB assay; conditions: HOP-62, 48 h
SR = assay: Anticancer activity against Homo sapiens (human) SR cells after 48 hr by SRB assay
RPMI-8226 = assay: Anticancer activity against Homo sapiens (human) RPMI8226 cells after 48 hr by SRB assay; conditions: RPMI-8226, 48 h
K562 = assay: Anticancer activity against Homo sapiens (human) K562 cells after 48 hr by SRB assay; conditions: K562, 48 h
HCC 2998 = assay: Growth inhibition of Homo sapiens (human) HCC2998 cells at 10 uM after 48 hr by SRB assay; conditions: HCC 2998, 48 h, read-out: GI
NCI-H460 = assay: Growth inhibition of Homo sapiens (human) NCI-H460 cells at 10 uM after 48 hr by SRB assay; conditions: NCI-H460, 48 h, read-out: GI
CCRF-CEM = assay: Anticancer activity against Homo sapiens (human) CCRF-CEM cells after 48 hr by SRB assay
Hs-578T = assay: Growth inhibition of Homo sapiens (human) Hs 578T cells at 10 uM after 48 hr by SRB assay; conditions: read-out: GI
UO-31 = assay: Growth inhibition of Homo sapiens (human) UO31 cells at 10 uM after 48 hr by SRB assay; conditions: UO-31, 48 h, read-out: GI
U-251 [2] = assay: Anticancer activity against Homo sapiens (human) U251 cells after 48 hr by SRB assay; conditions: U-251, 48 h
SF-268 = assay: Anticancer activity against Homo sapiens (human) SF268 cells after 48 hr by SRB assay; conditions: SF-268, 48 h
SW-620 = assay: Anticancer activity against Homo sapiens (human) SW620 cells after 48 hr by SRB assay; conditions: SW-620, 48 h
KM12 = assay: Anticancer activity against Homo sapiens (human) KM12 cells after 48 hr by SRB assay; conditions: KM12, 48 h
NCI-H322M = assay: Anticancer activity against Homo sapiens (human) NCI-H322M cells after 48 hr by SRB assay
HOP-62 [3] = assay: Growth inhibition of Homo sapiens (human) HOP62 cells at 10 uM after 48 hr by SRB assay; conditions: HOP-62, 48 h, read-out: GI
Staphylococcus aureus = assay: Antimicrobial activity against Staphylococcus aureus DSM 1104 after 48 hr by two-fold serial broth dilution method; conditions: DSM 1104, 48 h
BT-549 = assay: Anticancer activity against Homo sapiens (human) BT549 cells after 48 hr by SRB assay; conditions: BT-549, 48 h
TK-10 = assay: Anticancer activity against Homo sapiens (human) TK10 cells after 48 hr by SRB assay; conditions: TK-10, 48 h
ACHN = assay: Anticancer activity against Homo sapiens (human) ACHN cells after 48 hr by SRB assay
SK-OV-3 [4] = assay: Growth inhibition of Homo sapiens (human) SKOV3 cells at 10 uM after 48 hr by SRB assay; conditions: SK-OV-3, 48 h, read-out: GI
OVCAR-8 = assay: Growth inhibition of Homo sapiens (human) OVCAR8 cells at 10 uM after 48 hr by SRB assay; conditions: OVCAR-8, 48 h, read-out: GI
SK-OV-3 [5] = assay: Anticancer activity against Homo sapiens (human) SKOV3 cells after 48 hr by SRB assay; conditions: SK-OV-3, 48 h
NCI/ADR-RES = assay: Anticancer activity against Homo sapiens (human) NCI/ADR-RES cells after 48 hr by SRB assay
OVCAR-3 = assay: Anticancer activity against Homo sapiens (human) OVCAR3 cells after 48 hr by SRB assay; conditions: OVCAR-3, 48 h
IGROV-1 = assay: Anticancer activity against Homo sapiens (human) IGROV1 cells after 48 hr by SRB assay; conditions: IGROV-1, 48 h
UACC-62 = assay: Anticancer activity against Homo sapiens (human) UACC62 cells after 48 hr by SRB assay; conditions: UACC-62, 48 h
SK-MEL-28 = assay: Anticancer activity against Homo sapiens (human) SK-MEL-28 cells after 48 hr by SRB assay; conditions: SK-MEL-28, 48 h
SK-MEL-2 = assay: Anticancer activity against Homo sapiens (human) SK-MEL-2 cells after 48 hr by SRB assay; conditions: SK-MEL-2, 48 h
M14 = assay: Anticancer activity against Homo sapiens (human) M14 cells after 48 hr by SRB assay; conditions: M14, 48 h
U-251 [6] = assay: Growth inhibition of Homo sapiens (human) U251 cells at 10 uM after 48 hr by SRB assay; conditions: U-251, 48 h, read-out: GI
SNB-75 = assay: Growth inhibition of Homo sapiens (human) SNB75 cells at 10 uM after 48 hr by SRB assay; conditions: SNB-75, 48 h, read-out: GI
[7] = read-out: LC50 (the source's name)

SMILES: COc1ccc(OC)c(/C=C/c2nnc(Nc3ccc(Cl)cc3)o2)c1
- GI50 (HOP-62 [1]): 2.71 µM
- TGI (HOP-62 [1]): 7.68 µM
- CC50 (HOP-62 [1]; [7]): 38.9 µM
- GI50 (SR): 48.2 µM
- TGI (SR): > 100 µM
- CC50 (SR; [7]): > 100 µM
- GI50 (RPMI-8226): > 100 µM
- TGI (RPMI-8226): > 100 µM
- CC50 (RPMI-8226; [7]): > 100 µM
- GI50 (K562): 92.8 µM
- TGI (K562): > 100 µM
- CC50 (K562; [7]): > 100 µM
- inhibition of growth at 10 µM (HCC 2998): 44.6%
- inhibition of growth at 10 µM (NCI-H460): 84.5%
- GI50 (CCRF-CEM): > 100 µM
- TGI (CCRF-CEM): > 100 µM
- CC50 (CCRF-CEM; [7]): > 100 µM
- inhibition of growth at 10 µM (Hs-578T): 93.1%
- inhibition of growth at 10 µM (UO-31): 95%
- GI50 (U-251 [2]): 3.81 µM
- TGI (U-251 [2]): 14.3 µM
- CC50 (U-251 [2]; [7]): 47.6 µM
- GI50 (SF-268): 7.6 µM
- TGI (SF-268): 37.9 µM
- CC50 (SF-268; [7]): > 100 µM
- GI50 (SW-620): 18.3 µM
- TGI (SW-620): > 100 µM
- CC50 (SW-620; [7]): > 100 µM
- GI50 (KM12): 17.4 µM
- TGI (KM12): > 100 µM
- CC50 (KM12; [7]): > 100 µM
- GI50 (NCI-H322M): 30.5 µM
- TGI (NCI-H322M): > 100 µM
- CC50 (NCI-H322M; [7]): > 100 µM
- inhibition of growth at 10 µM (HOP-62 [3]): 64.7%
- MBC (Staphylococcus aureus): 50 µg/mL (≈ 140 µM)
- MIC (Staphylococcus aureus): 50 µg/mL (≈ 140 µM)
- TGI (BT-549): > 100 µM
- CC50 (BT-549; [7]): > 100 µM
- GI50 (TK-10): 7.4 µM
- TGI (TK-10): 83.2 µM
- CC50 (TK-10; [7]): > 100 µM
- GI50 (ACHN): 3.29 µM
- TGI (ACHN): 19.9 µM
- CC50 (ACHN; [7]): > 100 µM
- inhibition of growth at 10 µM (SK-OV-3 [4]): 67.1%
- inhibition of growth at 10 µM (OVCAR-8): 33.3%
- GI50 (SK-OV-3 [5]): 2.79 µM
- LC50 (SK-OV-3 [5]): 60.6 µM
- TGI (SK-OV-3 [5]): 7.85 µM
- GI50 (NCI/ADR-RES): 7.62 µM
- LC50 (NCI/ADR-RES): > 100 µM
- TGI (NCI/ADR-RES): 98.1 µM
- GI50 (OVCAR-3): 3.55 µM
- LC50 (OVCAR-3): > 100 µM
- TGI (OVCAR-3): 15.9 µM
- GI50 (IGROV-1): 7.7 µM
- LC50 (50% lethal concentration) (IGROV-1): > 100 µM
- TGI (IGROV-1): > 100 µM
- GI50 (UACC-62): 16.2 µM
- LC50 (UACC-62): > 100 µM
- TGI (UACC-62): > 100 µM
- GI50 (SK-MEL-28): 26.8 µM
- LC50 (concentration killing 50% of cells) (SK-MEL-28): > 100 µM
- TGI (SK-MEL-28): > 100 µM
- GI50 (SK-MEL-2): 9.66 µM
- TGI (SK-MEL-2): > 100 µM
- CC50 (SK-MEL-2; [7]): > 100 µM
- GI50 (M14): 20.7 µM
- LC50 (M14): > 100 µM
- TGI (M14): > 100 µM
- inhibition of growth at 10 µM (U-251 [6]): 58.2%
- inhibition of growth at 10 µM (SNB-75): 84.2%
